Key:
SK-BR-3 [1] = test: Cytotoxicity against human SKBR3 cells at 10 uM after 72 hrs by MTT assay; type: functional
[2] = target: Receptor tyrosine-protein kinase erbB-2 (Homo sapiens, UniProt P04626); test: Inhibition of HER2
SK-BR-3 [3] = test: Cytotoxicity against human SKBr3 cells after 72 hrs by MTT assay; type: functional, cell-based; settings: SK-BR-3, 72 h

Chain of Receptor tyrosine-protein kinase erbB-2 (P04626 whole entry): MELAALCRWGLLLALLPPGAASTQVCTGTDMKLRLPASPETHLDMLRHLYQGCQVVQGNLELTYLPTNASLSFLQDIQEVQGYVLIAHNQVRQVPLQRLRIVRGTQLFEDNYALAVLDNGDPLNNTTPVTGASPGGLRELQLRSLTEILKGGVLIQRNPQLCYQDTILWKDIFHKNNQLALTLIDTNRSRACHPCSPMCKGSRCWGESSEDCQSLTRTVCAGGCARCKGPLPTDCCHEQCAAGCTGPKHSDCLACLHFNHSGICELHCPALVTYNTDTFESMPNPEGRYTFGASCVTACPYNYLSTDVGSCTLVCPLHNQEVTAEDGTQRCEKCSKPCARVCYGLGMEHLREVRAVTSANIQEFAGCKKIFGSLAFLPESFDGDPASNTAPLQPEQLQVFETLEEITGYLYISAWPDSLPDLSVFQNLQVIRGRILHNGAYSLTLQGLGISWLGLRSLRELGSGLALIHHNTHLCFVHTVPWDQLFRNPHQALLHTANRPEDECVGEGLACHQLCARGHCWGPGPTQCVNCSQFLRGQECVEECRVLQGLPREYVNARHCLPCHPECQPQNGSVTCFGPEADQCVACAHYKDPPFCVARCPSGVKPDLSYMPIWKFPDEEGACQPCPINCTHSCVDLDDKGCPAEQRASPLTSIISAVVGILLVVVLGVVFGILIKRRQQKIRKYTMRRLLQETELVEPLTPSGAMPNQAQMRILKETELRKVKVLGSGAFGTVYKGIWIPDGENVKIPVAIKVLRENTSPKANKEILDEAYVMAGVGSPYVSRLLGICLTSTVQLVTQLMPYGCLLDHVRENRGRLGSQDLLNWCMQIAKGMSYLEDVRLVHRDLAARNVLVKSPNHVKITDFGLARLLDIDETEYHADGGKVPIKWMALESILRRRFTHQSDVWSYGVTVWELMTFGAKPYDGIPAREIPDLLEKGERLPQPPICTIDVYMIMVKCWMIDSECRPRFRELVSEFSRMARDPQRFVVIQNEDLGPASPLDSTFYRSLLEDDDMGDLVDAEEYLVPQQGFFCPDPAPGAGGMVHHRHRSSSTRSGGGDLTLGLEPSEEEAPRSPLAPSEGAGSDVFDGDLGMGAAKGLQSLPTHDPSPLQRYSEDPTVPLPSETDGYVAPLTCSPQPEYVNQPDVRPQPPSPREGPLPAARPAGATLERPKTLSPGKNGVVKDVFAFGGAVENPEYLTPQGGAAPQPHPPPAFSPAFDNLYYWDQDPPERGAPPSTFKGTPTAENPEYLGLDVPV

With `Cc1ccc2[nH]cc(CCNC(=O)c3cccnc3)c2c1` the Activity (SK-BR-3 [1]) was 1%.
For `c1ccc(Oc2ccc(Nc3ccnc4ccccc34)cc2)cc1`, the IC50 [2] was 0.733 µM.
In the case of `Cc1sc(NC(=O)CSc2ncnc3sc4c(c23)CCCC4)c(C#N)c1C`, the Activity (SK-BR-3 [1]) is reported as 26%.
For `Clc1cc(Nc2c3ccccc3nc3ccccc23)ccc1Oc1ccc2ccccc2c1Br`, the Activity (SK-BR-3 [1]) was 3%.
`CCOC(=O)c1ccc(Nc2cc(C)nc3ncnn23)cc1` showed an Activity (SK-BR-3 [1]) of 1%.
`O=[N+]([O-])c1ccccc1-c1nnc(CSc2ncnc3sc4c(c23)CCCC4)o1` gave an Activity (SK-BR-3 [1]) of 7%.
Work on `COc1ccc2[nH]c(=O)c(CN(CCc3cccc(C)c3)C(C)=O)cc2c1` yielded an Activity (SK-BR-3 [1]) of 5%.
`CONC(=O)c1ccc(F)c(Nc2ncnn3cc(NC(=O)OCCCS(C)(=O)=O)c(C(C)C)c23)c1` gave an IC50 [2] of 5.3 µM.
Work on `COc1cc(OCC(=O)Nc2cccc([N+](=O)[O-])c2)ccc1/C=N/Nc1ncnc2sc3c(c12)CCCC3` yielded an Activity (SK-BR-3 [1]) of 7%.
With `O=C(Nc1ccc(Oc2ccc3nsnc3c2)c(Cl)c1)c1cc(Cl)ccc1O` the Activity (SK-BR-3 [1]) was 30%.
`COc1cccc(OC)c1C(=O)Nc1ccc2c(c1)OCC(=O)N2Cc1ccccc1Cl` gave an Activity (SK-BR-3 [1]) of 2%.
With `c1ccc(CCNc2ccnc3cc4ccccc4cc23)cc1` the IC50 (SK-BR-3 [3]) was 8 µM.
For `O=C(Nc1ncnc2sc3c(c12)CCC3)c1cccs1`, the Activity (SK-BR-3 [1]) was 20%.
Compound `COC(=O)c1sc(NC(=O)CSc2nc(C3CC3)nc3sc4c(c23)CCCC4)nc1C` has an Activity (SK-BR-3 [1]) of 31%.
In the case of `CCN(CC)c1ccc(NC(=O)CSc2ncnc3sc(C)c(C)c23)cc1C`, the IC50 (SK-BR-3 [3]) is reported as 16 µM.
`Cc1ccc2[nH]c(=O)c(CN(Cc3cccs3)C(=O)c3ccco3)cc2c1` showed an Activity (SK-BR-3 [1]) of 22%.
In the case of `CCOc1ccc(Nc2nc(NCCO)nc(C)c2[N+](=O)[O-])cc1`, the Activity (SK-BR-3 [1]) is reported as 32%.
`Cc1ccc(-c2csc3ncnc(SCC(=O)Nc4nc(-c5ccccc5)cs4)c23)cc1` showed an Activity (SK-BR-3 [1]) of 33%.
`CCn1nnnc1SCC(=O)Nc1ccc(OCc2ccccc2)cc1` was tested, and the Activity (SK-BR-3 [1]) was 19%.
For `COc1cc(NC(=O)CSc2nnnn2-c2ccc3c(c2)OCCO3)cc(OC)c1`, the Activity (SK-BR-3 [1]) was 15%.
Compound `CCc1cc2c(NCCc3ccc(OC)c(OC)c3)ncnc2s1` has an IC50 (SK-BR-3 [3]) of 14 µM.
`COc1ccc(-c2nc3cc(NC(=O)COc4ccc(C)cc4C)ccc3o2)cc1Br` gave an Activity (SK-BR-3 [1]) of 32%.
For `O=C(CSc1ncnc2sc3c(c12)CCCC3)Nc1nc(-c2ccccc2)cs1`, the Activity (SK-BR-3 [1]) was 34%.
Compound `CCOc1ccc(OCC)c(NC(=O)CSc2nc3c(C)cccc3cc2C#N)c1` has an Activity (SK-BR-3 [1]) of 16%.
In the case of `CCN(CC)CCNc1ccc(Nc2ccnc3cc4ccccc4cc23)cc1`, the IC50 (SK-BR-3 [3]) is reported as 2 µM.
Work on `CS(=O)(=O)CCNCc1nc(-c2ccc3ncnc(Nc4ccc(OCc5cccc(F)c5)c(Cl)c4)c3c2)cs1` yielded an IC50 [2] of 0.01 µM.
Work on `c1ccc2c(NCCCNc3ncnc4ccccc34)ncnc2c1` yielded an Activity (SK-BR-3 [1]) of 32%.
Compound `COc1cc(CNCc2cccnc2)ccc1OCc1ccccc1Cl` has an Activity (SK-BR-3 [1]) of 1%.
Compound `COc1cccc(-c2cc3cc4c(c(NCc5cc(OC)c(OC)c(OC)c5)n3n2)CCC4)c1` has an Activity (SK-BR-3 [1]) of 4%.
For `CCOc1ccc(Nc2c3c(nc4ncnn24)CCC3)cc1`, the Activity (SK-BR-3 [1]) was 26%.
Work on `Cc1nc2cc(NCc3ccccc3O)ccc2n1Cc1ccccc1` yielded an Activity (SK-BR-3 [1]) of 13%.
For `COc1ccc2nc(C)cc(Nc3ccc(Oc4ccc(Cl)cc4)c(Cl)c3)c2c1`, the IC50 (SK-BR-3 [3]) was 5 µM.
Work on `O=C(CSc1ncnc2sc3c(c12)CCCC3)NCc1cccc2c1OCO2` yielded an Activity (SK-BR-3 [1]) of 16%.
For `CC1CCc2c(sc3ncnc(NCc4ccco4)c23)C1` (stereo unspecified), the Activity (SK-BR-3 [1]) was 2%.
For `Cc1cc(Nc2ccc(N3CCC(C)CC3)cc2)n2ncnc2n1`, the Activity (SK-BR-3 [1]) was 25%.
Compound `Fc1ccccc1CCNc1c2c(nc3ncnn13)CCCC2` has an IC50 (SK-BR-3 [3]) of 14 µM.
Work on `COc1ccc(CCNc2c(Cc3ccccc3)c(C)nc3ncnn23)cc1OC` yielded an Activity (SK-BR-3 [1]) of 21%.
`COCC(=O)NC/C=C/c1ccc2ncnc(Nc3ccc(Oc4ccc(C)nc4)c(C)c3)c2c1` [CP-724714] gave an IC50 [2] of 0.012 µM.
`CCCCn1c(S(=O)(=O)c2cc(OC)c(OC)c(OC)c2)nc2c(N)ncnc21` showed an IC50 [2] of 310 µM.
In the case of `COc1ccc2nc(C)cc(Nc3ccc(Oc4ccc5ccccc5c4)c(Cl)c3)c2c1`, the IC50 (SK-BR-3 [3]) is reported as 5 µM.
With `COc1ccc(CN(CC(=O)NC2CCCC2)C(=O)Cn2cnc3sc(C)c(C)c3c2=O)cc1` the Activity (SK-BR-3 [1]) was 21%.
For `Cc1cc(O)nc(SCC(=O)Nc2ccc(C(=O)NC3CCCCC3)cc2)n1`, the Activity (SK-BR-3 [1]) was 21%.
Work on `O=C(NC1CCCC1)C(c1cccs1)N(C(=O)Cc1cccs1)c1ccc2c(c1)OCCO2` (stereo unspecified) yielded an Activity (SK-BR-3 [1]) of 16%.
`c1ccc(OCCOc2ccc(Nc3ccnc4cc5ccccc5cc34)cc2)cc1` was tested, and the IC50 (SK-BR-3 [3]) was 2 µM.
`Cc1cc2nc(CBr)c(-c3ccccc3)nc2cc1C` gave an IC50 [2] of 21 µM.
For `COc1ccc(NC(=O)Cn2nnc(-c3ccccc3NC(=O)c3cccs3)n2)cc1`, the Activity (SK-BR-3 [1]) was 27%.
In the case of `CN1CCN(CCCNc2ccnc3cc4ccccc4cc23)CC1`, the IC50 (SK-BR-3 [3]) is reported as 15 µM.
Compound `Brc1ccc2ncnc(NCCc3ccccc3)c2c1` has an IC50 (SK-BR-3 [3]) of 15 µM.
`CCc1ccccc1NC(=O)NCCCNc1nc2cc(C)cc(C)c2cc1C#N` showed an Activity (SK-BR-3 [1]) of 29%.
Compound `Cc1nn(-c2ccccc2)c2sc(C(=O)N(CC(=O)NC3CCCC3)C3CC3)cc12` has an Activity (SK-BR-3 [1]) of 22%.
Compound `O=C(CSc1ncnc2sc3c(c12)CCCC3)Nc1ccc(S(=O)(=O)N2CCCCCC2)cc1` has an Activity (SK-BR-3 [1]) of 11%.
Compound `c1cncc(CNc2ncnc3ccccc23)c1` has an Activity (SK-BR-3 [1]) of 15%.
`O=C(CSc1ncnc2sc3c(c12)CCC3)Nc1ccc(S(=O)(=O)N2CCOCC2)cc1` showed an Activity (SK-BR-3 [1]) of 12%.
`Nc1ncnc2nc(Sc3cc(Cl)ccc3Cl)[nH]c12` showed an IC50 [2] of 120 µM.
With `CCOC(=O)c1c(-c2ccccc2)csc1NC(=O)CSc1ncnc2sc3c(c12)CCCC3` the Activity (SK-BR-3 [1]) was 11%.
In the case of `CCOC(=O)c1ccc(Nc2c([N+](=O)[O-])c(=O)oc3ccccc23)cc1`, the Activity (SK-BR-3 [1]) is reported as 5%.
`CN1CCN(c2ccc(Nc3ncnc4sc5c(c34)CCCC5)cc2)CC1` was tested, and the IC50 (SK-BR-3 [3]) was 9 µM.
For `COc1cc2nccc(Nc3ccc(N4C(=O)c5ccc(Cl)cc5C4=O)c(C)c3)c2cc1OC`, the IC50 [2] was 1.7 µM.
With `Cc1ccc(S(=O)(=O)N(Cc2ccc3c(c2)OCO3)Cc2cc3ccc(C)c(C)c3[nH]c2=O)cc1` the Activity (SK-BR-3 [1]) was 12%.
Compound `CCC(C)(C)C1CCc2sc3ncnc(N/N=C(\C)c4ccc(OC)cc4)c3c2C1` (stereo unspecified) has an Activity (SK-BR-3 [1]) of 12%.
For `Cc1cc2cc(CN(Cc3cccs3)C(=O)Nc3ccccc3F)c(=O)[nH]c2cc1C`, the Activity (SK-BR-3 [1]) was 19%.
Compound `O=C(CSc1ncnc2sc3c(c12)CCCC3)Nc1nc(-c2ccc(F)cc2)cs1` has an Activity (SK-BR-3 [1]) of 32%.
`O=C(Nc1cccc(NC(=O)c2ccc(Cl)cc2Cl)c1)c1cccnc1` was tested, and the Activity (SK-BR-3 [1]) was 2%.
Work on `COc1ccc(CCNc2cc(-c3ccccc3)nc3ncnn23)cc1` yielded an IC50 (SK-BR-3 [3]) of 9 µM.
Work on `COc1cc(/C=N/Nc2ncnc3sc4c(c23)CCCC4)ccc1OCC(=O)Nc1ccccc1` yielded an Activity (SK-BR-3 [1]) of 32%.
With `COCOCC#CC(=O)Nc1ccc2ncnc(Nc3cccc(Br)c3)c2c1` the IC50 [2] was 0.009 µM.

— ChEMBL document CHEMBL1150417, “Discovery of novel small-molecule inhibitors of human epidermal growth factor receptor-2: combined ligand and target-based approach” (J Med Chem, 2008)
